Test results published in PMC9095466 (Nature, 2022).
Values joined by “and” are separate entries in the source; they are usually repeats but may differ in a detail not shown here. Equal entries are not always repeated. Where two headings read alike, the source gives them in different places.

What was measured:
mouse TMPRSS2 = mouse TMPRSS2 (Mus musculus, UniProt Q9JIQ8); experiment: cell-based
human cathepsin L = biological target: T1, human cathepsin L (Homo sapiens, UniProt P07711); experiment: Protease selectivity, Ki on protease; type: biochemical; settings: mean ± s.d., max concentration 10 µM; read-out: Ki Cathepsin L
T1 construct: purchased Bio-Techne
T1 sequence (P07711 114-333): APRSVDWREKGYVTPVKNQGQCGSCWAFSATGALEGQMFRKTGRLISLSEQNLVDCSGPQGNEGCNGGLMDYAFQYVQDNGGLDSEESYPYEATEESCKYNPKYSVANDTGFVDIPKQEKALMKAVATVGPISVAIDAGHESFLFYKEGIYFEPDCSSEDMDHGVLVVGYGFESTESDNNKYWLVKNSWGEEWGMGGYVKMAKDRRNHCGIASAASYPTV

[1] = Cytotoxicity CC50 in Calu-3 lung epithelial cells; type: cell-based, human; settings: human; Calu-3 lung epithelial cells, n = 2; read-out: CC50 in Calu-3 cells
human TMPRSS2 = human TMPRSS2 (Homo sapiens, UniProt O15393); experiment: cell-based
Chain of human TMPRSS2 (O15393 whole entry): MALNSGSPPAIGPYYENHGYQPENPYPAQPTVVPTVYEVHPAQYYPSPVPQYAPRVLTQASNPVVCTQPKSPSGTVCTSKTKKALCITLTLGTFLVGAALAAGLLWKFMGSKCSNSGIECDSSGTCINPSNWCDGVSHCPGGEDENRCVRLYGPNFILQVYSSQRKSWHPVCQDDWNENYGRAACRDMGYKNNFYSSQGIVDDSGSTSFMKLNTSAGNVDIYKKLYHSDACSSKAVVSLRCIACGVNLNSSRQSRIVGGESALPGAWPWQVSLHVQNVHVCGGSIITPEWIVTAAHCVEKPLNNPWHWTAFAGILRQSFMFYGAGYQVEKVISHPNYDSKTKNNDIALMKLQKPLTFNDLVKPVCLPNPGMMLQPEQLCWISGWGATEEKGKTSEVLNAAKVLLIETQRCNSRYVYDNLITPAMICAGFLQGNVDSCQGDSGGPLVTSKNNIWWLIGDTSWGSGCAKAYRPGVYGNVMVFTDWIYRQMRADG

Recombinant human DESC1 = biological target: T2, Recombinant human DESC1 (Homo sapiens, UniProt Q9UL52); experiment: Protease selectivity, Ki on recombinant protease; type: biochemical; settings: mean ± s.d., max concentration 10 µM; read-out: Ki DESC1
T2 construct: made in house
T2 sequence (Q9UL52 1-423): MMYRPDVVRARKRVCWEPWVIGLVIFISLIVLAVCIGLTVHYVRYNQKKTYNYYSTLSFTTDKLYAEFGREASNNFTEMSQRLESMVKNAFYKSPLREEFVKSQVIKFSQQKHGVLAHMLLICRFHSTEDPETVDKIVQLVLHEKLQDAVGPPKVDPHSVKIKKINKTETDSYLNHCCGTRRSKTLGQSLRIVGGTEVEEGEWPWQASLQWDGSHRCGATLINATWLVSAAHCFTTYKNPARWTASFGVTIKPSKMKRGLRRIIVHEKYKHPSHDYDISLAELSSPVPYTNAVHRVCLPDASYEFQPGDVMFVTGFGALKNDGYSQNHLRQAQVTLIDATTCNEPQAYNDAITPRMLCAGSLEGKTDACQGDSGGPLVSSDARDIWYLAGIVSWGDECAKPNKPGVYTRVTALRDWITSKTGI

Recombinant human furin = biological target: T3, Recombinant human furin (Homo sapiens, UniProt P09958); experiment: Protease selectivity, Ki on recombinant protease; type: biochemical; settings: mean ± s.d., max concentration 10 µM; read-out: Ki Furin
T3 construct: purchased Bio-Techne
T3 sequence (P09958 108-794): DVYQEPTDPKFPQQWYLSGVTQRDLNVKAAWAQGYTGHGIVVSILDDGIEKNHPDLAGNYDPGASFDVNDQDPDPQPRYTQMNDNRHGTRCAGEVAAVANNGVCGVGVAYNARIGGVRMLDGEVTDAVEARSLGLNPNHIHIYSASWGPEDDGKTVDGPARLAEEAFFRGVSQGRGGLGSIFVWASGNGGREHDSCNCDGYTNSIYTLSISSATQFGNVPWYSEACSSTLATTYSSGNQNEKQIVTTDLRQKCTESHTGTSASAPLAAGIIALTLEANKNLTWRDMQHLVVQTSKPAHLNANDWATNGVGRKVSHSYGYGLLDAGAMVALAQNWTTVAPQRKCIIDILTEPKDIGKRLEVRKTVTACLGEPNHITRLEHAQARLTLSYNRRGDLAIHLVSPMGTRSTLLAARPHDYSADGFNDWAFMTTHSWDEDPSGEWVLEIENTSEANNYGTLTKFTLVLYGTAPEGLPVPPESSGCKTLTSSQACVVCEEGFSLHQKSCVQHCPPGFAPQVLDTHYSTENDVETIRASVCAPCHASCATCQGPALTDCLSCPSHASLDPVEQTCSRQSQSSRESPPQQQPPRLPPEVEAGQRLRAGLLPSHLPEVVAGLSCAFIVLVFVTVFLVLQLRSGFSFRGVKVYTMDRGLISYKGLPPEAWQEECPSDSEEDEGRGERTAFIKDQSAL

[2] = system: SARS-CoV-2 B.1.351 (Beta); experiment: microbe, parasite or virus in culture; type: cell-based; settings: SA
[3] = system: SARS-CoV-2 lineage B strain (VIDO); experiment: microbe, parasite or virus in culture; type: cell-based

Chain of mouse TMPRSS2 (Q9JIQ8 whole entry): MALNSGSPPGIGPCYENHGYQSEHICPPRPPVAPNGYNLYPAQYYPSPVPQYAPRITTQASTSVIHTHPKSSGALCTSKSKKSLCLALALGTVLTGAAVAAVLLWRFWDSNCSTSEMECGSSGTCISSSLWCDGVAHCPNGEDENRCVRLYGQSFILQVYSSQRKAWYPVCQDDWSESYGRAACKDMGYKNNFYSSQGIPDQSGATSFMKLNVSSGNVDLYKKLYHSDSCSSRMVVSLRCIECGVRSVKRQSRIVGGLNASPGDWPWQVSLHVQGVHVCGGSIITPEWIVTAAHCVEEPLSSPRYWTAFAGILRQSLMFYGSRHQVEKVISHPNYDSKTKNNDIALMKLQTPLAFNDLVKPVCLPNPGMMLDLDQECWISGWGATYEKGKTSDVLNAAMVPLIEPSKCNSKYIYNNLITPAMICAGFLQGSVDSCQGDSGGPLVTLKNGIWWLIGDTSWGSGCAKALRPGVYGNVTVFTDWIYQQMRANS

## CS(=O)(=O)NC(CCC(N)=O)C(=O)NC(Cc1ccccc1)C(=O)NC(CCCNC(=N)N)C(=O)c1nc2ccccc2s1 (stereo not drawn) [Compound N-0385, Ms-QFR-kbt]
Mouse TMPRSS2; Vero E6 cells transfected with mTMPRSS2, 24 h, mean ± SD, n = 3, read-out: mouse TMPRSS2 (mTmprss2) activity IC50
  IC50: 0.0123 ± 0.0019 µM
Mouse TMPRSS2; mTMPRSS2, mean of independent experiments, Figure S1C, read-out: IC50 Mean
  IC50: 0.0123 µM
Mouse TMPRSS2; mTMPRSS2, single experiments N1-N3, Figure S1C, read-out: IC50 determined from independant experiments
  IC50: 0.0122 µM and 0.0143 µM and 0.0104 µM
Human cathepsin L
  Ki: 6.29 ± 3.61 µM
[1]
  CC50 at 24 h: 3470 µM
Human TMPRSS2; Figure 1B, single experiments N1-N3
  TMPRSS2 activity (%): 12.847% and 18.5887% and 21.0267%
Human TMPRSS2; Vero C1008, 10 nM compound, 24 h, vs untreated/vehicle TMPRSS2-expressing Vero E6 cells, read-out: inhibition of TMPRSS2 activity (reduction of substrate proteolysis)
  inhibition at 0.01 µM: 83%
Recombinant human DESC1
  Ki: 0.0266 ± 0.0088 µM
Recombinant human furin
  Ki: > 10 µM
[2]; log [C] (nM) 0.20412
  infection, dose response Figure 3c (nucleocapsid): 79.6793 and 91.7767 and 88.3707 and 72.9139 and 58.6745
  infection, dose response Figure 3d (dsRNA): 63.8002 and 67.3054 and 60.7262 and 87.9301 and 97.1304
[2]; log [C] (nM) 0.90309
  infection, dose response Figure 3c (nucleocapsid): 43.2222 and 77.2087 and 78.2089 and 72.2128 and 63.0729
  infection, dose response Figure 3d (dsRNA): 54.6567 and 62.1742 and 66.7756 and 99.2713 and 89.1898
[2]; log [C] (nM) 1.60206
  infection, dose response Figure 3c (nucleocapsid): 26.0524 and 35.9809 and 32.5888 and 37.5917 and 24.568
  infection, dose response Figure 3d (dsRNA): 39.7311 and 51.7136 and 44.1381 and 59.5864 and 41.1574
[2]; log [C] (nM) -0.49485
  infection, dose response Figure 3c (nucleocapsid): 80.9236 and 100 and 89.9432 and 52.6441
  infection, dose response Figure 3d (dsRNA): 76.5319 and 75.7767 and 69.4582 and 92.7897 and 93.6397
[2]; log [C] (nM) -1.19382
  infection, dose response Figure 3c (nucleocapsid): 96.6594 and 91.8391 and 98.1873 and 70.3455
  infection, dose response Figure 3d (dsRNA): 75.3943 and 74.8717 and 100 and 96.2799
[3]; Figure 2a, two replicates, DMSO control about 91-94
  Nucleocapsid: 1.14 and 1.542
[3]; Figure 2a, two replicates, DMSO control about 93-95
  dsRNA: 2.011 and 2.808
[3]; Severe acute respiratory syndrome coronavirus 2, Calu-3, read-out: SARS-CoV-2 VIDO Nucleocapsid EC50 ± SE
  EC50: 0.0028 ± 0.0014 µM
[3]; Severe acute respiratory syndrome coronavirus 2, Calu-3, read-out: inhibition of SARS-CoV-2 infection
  inhibition at 0.1 µM: > 99%
[3]; log [C] (nM) 0.20412
  Figure 2b dose-response, Mean: 56.2346
[3]; log [C] (nM) 0.90309
  Figure 2b dose-response, Mean: 18.4653
[3]; log [C] (nM) 1.60206
  Figure 2b dose-response, Mean: 7.161
[3]; log [C] (nM) 2.30103
  Figure 2b dose-response, Mean: 5.446
[3]; log [C] (nM) 3
  Figure 2b dose-response, Mean: 1.469
[3]; log [C] (nM) -0.49485
  Figure 2b dose-response, Mean: 74.438
[3]; log [C] (nM) -1.19382
  Figure 2b dose-response, Mean: 85.6866
